Source: BindingDB's records for doi:10.1016/j.bmcl.2006.01.095 (Technische Universität Graz, 2006)

Legend:
[1] = Inhibition of jack beans alpha-mannosidase
[2] = Inhibition of Streptomyces plicatus beta-D-hexosaminidase

Ki [1] | Ki [2] | SMILES
65 µM | – | CN(C)c1ccc(-c2cnc(-c3ccc(S(=O)(=O)NCCCCCCN4C[C@H](O)[C@@H](O)[C@H](O)[C@H]4CO)cc3)o2)cc1 [4-(5-(4-(dimethylamino)phenyl)oxazol-2-yl)-N-(6-((2R,3R,4R,5S)-3,4,5-trihydroxy-2-(hydroxymethyl)piperidin-1-yl)hexyl)benzenesulfonamide]
– | 1.8 µM | CC(=O)N[C@H]1CN(CCCCCCNS(=O)(=O)c2cccc3c(N(C)C)cccc23)[C@H](CO)[C@@H](O)[C@@H]1O [N-((3S,4R,5R,6R)-1-(6-(1-(dimethylamino)naphthalene-5-sulfonamido)hexyl)-4,5-dihydroxy-6-(hydroxymethyl)piperidin-3-yl)acetamide]
